Reference: patent US20190336537A1, “GENERATING ATRIAL AND VENTRICULAR CARDIOMYOCYTE LINEAGES FROM HUMAN PLURIPOTENT STEM CELLS” (UNIVERSITY HEALTH NETWORK, priority 2016, published 2019)

Tests used:
[1] = system: HES3 NKX2-5:GFP reporter hESC line derived cardiomyocytes; assay: qRT-PCR analysis of atrial and ventricular gene expression in day 20 hPSC-derived cardiomyocytes; assay type: cell-based, human
Experimental: To determine if retinoic acid signaling can specify an atrial fate in hPSC-derived cardiogenic populations generated with our embryoid-body (EB)-based protocol, all trans retinoic acid (RA) was added to the differentiation cultures at 4 different time points that represent the following developmental stages: mesoderm induction (day 3), cardiovascular specification (day 5), cardiac progenitor development (day 7) and emergence of contracting cardiomyocytes (day 9) (Kattman et al., 2011) (FIG. 1A). The HES3 NKX2-5: GFP reporter hESC line was used for these experiments to allow us to monitor and quantify cardiovascular development and to isolate GFP+ cardiomyocytes. At day 20 of culture, GFP+SIRPA+CD90− cardiomyocytes were isolated from the differentiated populations and analyzed by RTqPCR for expression of genes indicative of atrial and ventricular development. (FIGS. 1B-D and 8B-E).
(§1) For cardiac differentiation, we used a modified version of our embryoid body (EB)-based protocol (Kattman et al., 2011). hPSC populations at 80%-90% confluence were dissociated into single cells (TrypLE, ThermoFisher) and re-aggregated to form EBs in StemPro-34 media (ThermoFisher) containing penicillin/streptomycin (1%, ThermoFisher), L-glutamine (2 mM, ThermoFisher), trans-ferrin (150 μg/ml, ROCHE), ascorbic acid (50 μg/ml, Sigma), and monothioglycerol (50 μg/ml, Sigma), ROCK inhibitor Y-27632 (10 μM, TOCRIS) and rhBMP4 (1 ng/ml, R&D) for 18 h on an orbital shaker. At day 1, the EBs were transferred to mesoderm induction media consisting of StemPro-34 with above supplements (-ROCK inhibitor Y-27632) and rhBMP4, rhActivinA (R&D) and rhbFGF (5 ng/ml, R&D) at the indicated concentrations. At day 3, the EBs were harvested, washed with IMDM and transferred to cardiac mesoderm specification media consisting of StemPro-34, the Wnt inhibitor IWP2 (1 μM, TOCRIS) and rhVEGF (10 ng/mL, R&D). At day 5, the EBs were transferred to Stem Pro-34 with rhVEGF (5 ng/ml) for another 7 days and then to Stem Pro-34 media without additional cytokines for further 8 days. At day 20, HES3-NKX2-5gfp/w-derived cardiomyocytes were analyzed and isolated based on the expression of NKX2-5:GFP and SIRPa and a lack of CD90. Cardiomyocytes generated from non-transgenic hPSC lines were analyzed and isolated as SIRPa+CD90− populations. Media was changed every 3 days. Cultures were incubated in a low oxygen environment (5% CO2, 5% O2, 90% N2) for first 12 days and a normoxic environment (5% CO2) for the following 8 days in total of 20 days. The EBs were cultured in ultra-low attachment 6-well dishes (Corning) throughout the differentiation for maintaining suspension cultures.
Total RNA from hPSC-derived populations was isolated using RNAqueous-micro Kit including RNase-free DNase treatment (Ambion). RNA from dissected ventricular and atrial tissue of human fetal hearts was isolated using the TRIzol method (ThermoFisher) and treated with DNase (Ambion). Between 100 ng and […] of isolated RNA was reverse transcribed into cDNA using oligo (dT) primers and random hexamers and Superscript III Reverse Transcriptase (ThermoFisher). QRT-PCR was performed on an EP Real-Plex MasterCycler (Eppendorf) using QuantiFast SYBR Green PCR kit (QIAGEN). All experiments were prepared in duplicates and included a 10-fold dilution series of sonicated human genomic DNA standards ranging from 25 ng/ml to 2.5 μg/ml for evaluating the efficiency of PCR reaction and the copy number of each gene relative to the house keeping gene TBP. […]

[2] = system: HES2 human embryonic stem cell derived EBs; assay: ROH/RA response of HES2-derived EBs (day 20 flow cytometry and qRT-PCR); assay type: cell-based; details: treated days 3 to 5
Excerpt: To determine if the approach for optimizing atrial and ventricular differentiation based on ALDH activity and CD235a expression is broadly applicable, we next used it to generate these cardiomyocyte populations from the HES2 human embryonic stem cell and the MSC-iPS1 induced pluripotent stem cell lines. Titration studies identified 5B/2A and 5B/6A as optimal for atrial and ventricular inductions, respectively, for HES2 cells and 4B/4A as optimal for ventricular induction for MSCiPSC1 cells (FIGS. 7A, 7B, 7E, and 7F; Mendeley http://dx.doi.org/10.17632/7z7d5v2c3w.1). Optimization of atrial induction from the MSC-iPSC1 cells was more challenging, as all cytokine combinations promoted the development of a substantial CD235a+ population. One interpretation of these patterns is that the MSC-iPS1 cells have a high level of endogenous Nodal/Activin A signaling, resulting in the development of some CD235a+ cells under all conditions. To test this, we added the Nodal/Activin A/transforming growth factor beta (TGF-beta) inhibitor SB-431542 (SB) from days 3 to 5 to cells induced with 4B/1A.
as §1, with “The EBs were cultured in ultra-low attachment 6-well dishes (Corning) throughout the differentiation for maintaining suspension cultures.” left out

[3] = system: HES3 NKX2-5:GFP reporter hESC line derived cardiomyocytes; assay: qRT-PCR analysis of atrial and ventricular gene expression in day 20 hPSC-derived cardiomyocytes; assay type: cell-based, human; remark: listed apart in the source
[4] = system: HES3 NKX2-5:GFP hESC-derived mesoderm; assay: Specification of mesoderm populations to an atrial fate by ROH or RA (day 20 flow cytometry and qRT-PCR); assay type: cell-based, human; details: day 4, 5B/4A induced
[5] = RA added at days 3 and 5, day 20
[6] = day 3 RA-treated mesoderm versus non-treated

Structure (SMILES): CC1=C(/C=C/C(C)=C/C=C/C(C)=C/C(=O)O)C(C)(C)CCC1 [RA, all trans retinoic acid]
- expression of atrial ion channel gene KCNJ3 [1, 5]: upregulation
- expression of ventricular-specific gene MYL2 [1, 5]: significant reduction
- expression of pan-cardiomyocyte marker CTNT ([1]; RA added at different time points, 10B/6A induced, day 20): None of the RA treatments significantly altered
- expression of atrial markers NR2F2, TBX5, NPPA, MYL7, CACNA1D, KCNA5, GJA5 [1, 6]: reverse pattern
- expression of ventricular markers IRX4 and MYH7 [1, 6]: lower levels
- response of ALDH+ mesoderm (atrial expression profile) ([2]; HES2, 5B/2A induced): responded to both ROH and RA
- response of CD235a+ mesoderm (MLC2V content, MYL2, IRX4, KCNJ3, NR2F2) ([2]; HES2, 5B/6A induced): both responded to RA
- expression of KCNJ3, CACNA1D and NR2F2 in VI versus AI cardiomyocytes ([3]; 4 mM RA): Comparable expression levels
- expression of ventricular genes MYL2 and IRX4 in the VI population ([3]; RA 1-2 mM): completely suppress
- expression of MYL2 and KCNJ3 ([3]; RA added at later stages (days 7 and 12)): no effect
- expression level of KCNA5 in cardiomyocytes from VI EBs ([3]; RA increased from 0.5 to 1-2 mM): did increase
- expression of KCNJ3, CACNA1D and NR2F2 in VI cardiomyocytes to levels of AI cells ([3]; RA up to 2 mM): failed to increase
- atrial specification (MLC2V+, IRX4, NPPA, KCNJ3, NR2F2) ([4]; CD235a+ALDH− fraction): responded to RA
- atrial specification (MLC2V+, IRX4, NPPA, KCNJ3, NR2F2) ([4]; CD235a−ALDH+ fraction): responded to RA
